The values below come from publication PMC5321741, “Arylmethylamino steroids as antiparasitic agents” (Nature Communications, 2017).

One data set deals with parasitaemia. More on the design: method as in Baragana et al Nature, 2015,522,315. The conditions noted are these: at 0.57 mg/kg; ref Baragana et al Nature, 2015,522,315; cited from earlier work.
For data set [1], the system named is hepatic cell line (HepG2). Nature of the data set: cytotoxicity on hepatic cell line (literature). The data set is classed as cell-based.
In data set [2] the test system is hepatic cell line (HepG2). Conditions: cited from earlier work.
The subject of data set [3] is adult Schistosoma mansoni. Conditions: no longer toxic at 1 μM; cited from earlier work.

Consider `O=C(NCCN1CCCC1)c1cc(-c2ccc(CN3CCOCC3)cc2)nc2ccc(F)cc12` [DDD107498], for which the reduction in parasitaemia in the data set with parasitaemia was 90%.
With `O=C(C1CCCCC1)N1CC(=O)N2CCc3ccccc3C2C1` (centres unmarked) [praziquantel], the selectivity index is listed as 33 in data set [1] (HepG2 IC50 with respect to adult worms treated in vitro with 5 µM) and 16.5 in data set [1] (HepG2 IC50 with respect to adult worms treated in vitro with 10 µM). Moreover, the IC50 in data set [2] is 165 µM. Also, the “concentration toxic for schistosomes in vitro” value in data set [3] was 5 to 10 µM.
